One test deals with T1, human TLR8 (Homo sapiens, UniProt Q9NR97).
T1 construct: host or cells: HEK-Blue cells
T1 sequence (Q9NR97 27-1041): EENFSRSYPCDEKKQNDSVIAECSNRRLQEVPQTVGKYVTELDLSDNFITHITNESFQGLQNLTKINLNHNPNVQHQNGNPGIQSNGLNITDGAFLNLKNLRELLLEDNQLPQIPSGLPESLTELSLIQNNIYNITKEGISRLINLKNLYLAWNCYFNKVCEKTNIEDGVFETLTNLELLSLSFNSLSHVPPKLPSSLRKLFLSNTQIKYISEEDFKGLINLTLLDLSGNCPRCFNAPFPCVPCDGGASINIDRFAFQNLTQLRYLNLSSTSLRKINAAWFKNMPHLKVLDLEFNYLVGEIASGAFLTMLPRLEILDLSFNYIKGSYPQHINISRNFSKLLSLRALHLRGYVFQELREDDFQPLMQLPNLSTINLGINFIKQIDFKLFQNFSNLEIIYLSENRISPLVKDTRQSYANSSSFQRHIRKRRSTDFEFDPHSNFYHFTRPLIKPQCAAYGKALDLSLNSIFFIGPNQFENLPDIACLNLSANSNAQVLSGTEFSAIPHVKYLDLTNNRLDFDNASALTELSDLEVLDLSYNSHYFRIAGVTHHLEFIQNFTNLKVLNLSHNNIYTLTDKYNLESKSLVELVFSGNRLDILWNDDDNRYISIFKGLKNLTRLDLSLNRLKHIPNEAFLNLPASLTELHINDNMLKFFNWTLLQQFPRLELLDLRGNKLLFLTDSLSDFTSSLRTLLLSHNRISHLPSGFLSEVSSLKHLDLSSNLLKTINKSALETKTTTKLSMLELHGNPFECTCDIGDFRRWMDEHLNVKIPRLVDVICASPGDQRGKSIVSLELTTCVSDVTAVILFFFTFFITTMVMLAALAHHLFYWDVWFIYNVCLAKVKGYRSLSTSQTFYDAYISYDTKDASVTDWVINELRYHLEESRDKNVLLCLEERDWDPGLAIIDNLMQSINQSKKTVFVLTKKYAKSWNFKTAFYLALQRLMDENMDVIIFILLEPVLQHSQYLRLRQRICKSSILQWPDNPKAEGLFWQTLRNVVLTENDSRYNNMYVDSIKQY
Nature of the test: TLR8 inhibition reporter assay (HEK-Blue SEAP). In kind it is cell-based. To be noted: HEK-Blue cells overexpressing human TLR8, R848 15.9 μM, 22 hour incubation. In short, it runs like this: (§1)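 Agonists used: gardiquimod 7.5 μM (TLR7), R848 15.9 μM (TLR8), ODN2006 5 nM (TLR9), added after 30 min room-temperature compound pre-treatment (0.05 nM–50 μM) of receptor-overexpressing HEK-Blue cells. SEAP reporter (NF-κB/AP-1 driven) read after 22 h at 37 °C; inhibition scaled between agonist+DMSO and reference-inhibitor wells.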
On the technique in general: In a reporter assay the amount or activity of a reporter protein is the signal.

A further test deals with T2, human TLR9 (Homo sapiens, UniProt Q9NR96).
T2 construct: host or cells: HEK-Blue cells
T2 sequence (Q9NR96 26-1032): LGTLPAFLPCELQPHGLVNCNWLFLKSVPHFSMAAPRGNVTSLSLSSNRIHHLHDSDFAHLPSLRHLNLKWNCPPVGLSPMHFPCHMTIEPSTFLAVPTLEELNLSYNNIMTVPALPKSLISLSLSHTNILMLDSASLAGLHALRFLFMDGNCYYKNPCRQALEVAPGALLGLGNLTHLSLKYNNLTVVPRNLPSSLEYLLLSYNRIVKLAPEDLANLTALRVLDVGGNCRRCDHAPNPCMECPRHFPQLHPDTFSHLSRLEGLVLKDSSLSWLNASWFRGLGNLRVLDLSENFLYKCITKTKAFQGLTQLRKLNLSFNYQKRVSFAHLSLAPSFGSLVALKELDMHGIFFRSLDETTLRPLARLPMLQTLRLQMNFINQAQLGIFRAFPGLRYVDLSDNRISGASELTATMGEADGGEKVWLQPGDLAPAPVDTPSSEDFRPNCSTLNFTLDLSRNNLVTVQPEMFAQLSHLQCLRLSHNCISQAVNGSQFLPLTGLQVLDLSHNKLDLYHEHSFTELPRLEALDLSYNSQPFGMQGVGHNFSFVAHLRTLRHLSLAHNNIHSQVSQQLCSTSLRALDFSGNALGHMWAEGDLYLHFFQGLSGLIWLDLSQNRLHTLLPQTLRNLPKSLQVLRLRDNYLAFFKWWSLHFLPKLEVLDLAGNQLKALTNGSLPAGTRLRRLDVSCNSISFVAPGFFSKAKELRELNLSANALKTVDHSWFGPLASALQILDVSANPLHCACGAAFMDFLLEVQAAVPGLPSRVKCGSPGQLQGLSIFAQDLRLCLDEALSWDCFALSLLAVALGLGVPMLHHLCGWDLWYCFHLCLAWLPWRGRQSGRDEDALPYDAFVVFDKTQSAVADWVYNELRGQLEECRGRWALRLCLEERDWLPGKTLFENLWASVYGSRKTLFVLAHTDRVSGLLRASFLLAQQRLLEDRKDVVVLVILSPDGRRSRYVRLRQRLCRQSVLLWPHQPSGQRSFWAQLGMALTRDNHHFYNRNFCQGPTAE
Nature of the test: TLR9 inhibition reporter assay (HEK-Blue SEAP). In kind it is cell-based. Particulars: HEK-Blue cells overexpressing human TLR9, ODN2006 5 nM, 22 hour incubation. In short, it runs like this: as §1

pIC50: −log10 of the molar value.

By pIC50 is commonly meant −log10 of the IC50, conventionally taken in molar units. Regarding `Cc1cc2c(cc1-c1cc(C)c3ncnn3c1)[nH]c(=O)n2[C@@H]1CCCN(Cc2ncn(C)n2)C1` [Example 35, (R)-6-methyl-1-(1-((1-methyl-1H-1,2,4-triazol-3-yl)methyl)piperidin-3-yl)-5-(8-methyl-[1,2,4]triazolo[1,5-a]pyridin-6-yl)-1,3-dihydro-2H-benzo[d]imidazol-2-one], the pIC50 is 6.66 against human TLR8 and < 4.30 against human TLR9.

Take `CCC(CC)N1CCC[C@@H](n2c(=O)[nH]c3cc(-c4cc(OC)c5ncnn5c4)c(C)cc32)C1` [Example 67, (R)-5-(8-methoxy-[1,2,4]triazolo[1,5-a]pyridin-6-yl)-6-methyl-1-(1-(pentan-3-yl)piperidin-3-yl)-1,3-dihydro-2H-benzo[d]imidazol-2-one]: the pIC50 against human TLR8 was 7.28; on human TLR9 it was 5.02.

For the molecule `CNC(=O)CN1CCC(n2c(=O)[nH]c3cc(-c4cc(OC)c5ncnn5c4)c(C)cc32)CC1` [Example 87, 2-(4-(5-(8-methoxy-[1,2,4]triazolo[1,5-a]pyridin-6-yl)-6-methyl-2-oxo-2,3-dihydro-1H-benzo[d]imidazol-1-yl)piperidin-1-yl)-N-methylacetamide], the results for the pIC50 against human TLR8 and on human TLR9 were 6.42 and 4.65, respectively.

Regarding `Cc1cc2c(cc1-c1cc(C)c3ncnn3c1)[nH]c(=O)n2[C@H]1CCCN(CC(N)=O)C1` [Example 92, (S)-2-(3-(6-methyl-5-(8-methyl-[1,2,4]triazolo[1,5-a]pyridin-6-yl)-2-oxo-2,3-dihydro-1H-benzo[d]imidazol-1-yl)piperidin-1-yl)acetamide], the negative-log IC50 (pIC50) against human TLR8 is 6.75; against human TLR9, 4.68.

With `Cc1cc2c(cc1-c1cc(C)c3ncnn3c1)[nH]c(=O)n2[C@@H]1CCCN(CC(C)C)C1` [Example 40, (R)-1-(1-isobutylpiperidin-3-yl)-6-methyl-5-(8-methyl-[1,2,4]triazolo[1,5-a]pyridin-6-yl)-1,3-dihydro-2H-benzo[d]imidazol-2-one], the figures for the negative logarithm of the IC50 (pIC50) against human TLR8 and on human TLR9 were 7.71 and 5.19, respectively.

Regarding `COc1cc(-c2cc3[nH]c(=O)n([C@@H]4CCCN(CC5CCOCC5)C4)c3cc2C)cn2ncnc12` [Example 57, (R)-5-(8-methoxy-[1,2,4]triazolo[1,5-a]pyridin-6-yl)-6-methyl-1-(1-((tetrahydro-2H-pyran-4-yl)methyl)piperidin-3-yl)-1,3-dihydro-2H-benzo[d]imidazol-2-one], the results for the pIC50 against human TLR8 and on human TLR9 were 8.05 and 5.23, respectively.

In the case of `COc1cc(-c2cc3[nH]c(=O)n([C@@H]4CCCN(CCC(F)(F)F)C4)c3cc2C)cn2ncnc12` [Example 68, (R)-5-(8-methoxy-[1,2,4]triazolo[1,5-a]pyridin-6-yl)-6-methyl-1-(1-(3,3,3-trifluoropropyl)piperidin-3-yl)-1,3-dihydro-2H-benzo[d]imidazol-2-one], the results for the pIC50 against human TLR8 and at human TLR9 were 6.92 and 4.57, respectively.

Turning to `COc1cc(-c2cc3[nH]c(=O)n([C@H]4CC[C@@H](NCC5CC5)CC4)c3cc2C)cn2ncnc12` [Example 60, 1-((1s,4s)-4-((cyclopropylmethyl)amino)cyclohexyl)-5-(8-methoxy-[1,2,4]triazolo[1,5-a]pyridin-6-yl)-6-methyl-1,3-dihydro-2H-benzo[d]imidazol-2-one], the pIC50 on human TLR8 was 8.24; against human TLR9, 5.18.

Take `COc1cc(-c2ccc3c(c2)[nH]c(=O)n3C2CCN(CC3CCOC3)CC2)cn2ncnc12` (centres unmarked) [Example 82, 5-(8-methoxy-[1,2,4]triazolo[1,5-a]pyridin-6-yl)-1-(1-((tetrahydrofuran-3-yl)methyl)piperidin-4-yl)-1,3-dihydro-2H-benzo[d]imidazol-2-one]: the figures for the pIC50 on human TLR8 and on human TLR9 were 5.59 and 5.32, respectively.

On to `CCCN1CCC[C@@H](n2c(=O)[nH]c3cc(-c4cc(OC)c5ncnn5c4)c(C)cc32)C1` [Example 54, (R)-5-(8-methoxy-[1,2,4]triazolo[1,5-a]pyridin-6-yl)-6-methyl-1-(1-propylpiperidin-3-yl)-1,3-dihydro-2H-benzo[d]imidazol-2-one], for which the pIC50 on human TLR8 was 7.62; against human TLR9 it was 5.37.
